# Reference: patent publication US7157078B2, “Devices and methods for eliminating termite colonies” (The University of Florida Research Foundation, Inc., priority 2001, dated 2007)
# Test system: termites from the genus/specie Reticulitermes flavipes or Coptotermes formosanus
# Assay: Termiticide activity (Reference Example 3)
# Format: in vivo
# Details: 0.5% compound on Whatman #1 filter paper, 20 termites per well, triplicate
# Procedure: The tests, run in triplicate, are set up in three wells of a 6-well polystyrene microtiter plate (3 wells are empty). Four circles of either 3.2 cm Whatman #1 filter paper (cellulose) for the food controls and tests on compounds, or 3.2 cm Whatman GF/C glass microfibre filters (borosilicate glass) for the no-food controls are stacked in each well. For the food controls, 600 microliters of water are added to each wen. For the no-food controls 1200 microliters of water are added to those wells. If the test compounds are water soluble, they are added to the wells in 600 microliters of water to deliver 0.5% compound. Water insoluble test compounds are added to the wells in a solvent in which they are soluble to deliver 0.5% compound, the solvent is evaporated, and 600 microliters of water added per well.
# Termiticidal activity for a compound is measured using termites from the genus/specie Reticulitermes flavipes or Coptotermes formosanus. The termites are added in groups of 20 per well. Every 34 days the termites are counted. The number of days until 50% death (DTD50) and 100% death for termites is determined. These values for termites in the wells containing test compounds are compared to the food and no-food controls to determine which compounds display termiticidal activity.
# Various compounds were analyzed by the method of Reference Example 3.
row,Compound,DTD50 (number of days until 50% death) [days]
1,OCC1OC(O)(C(F)(F)F)C(O)C(O)C1O (stereo not drawn),41
2,OCC1OC(F)C(F)C(O)C1O (stereo not drawn),33
3,OCC1OC(OC2C(CO)OC(Oc3ccccc3)C(O)C2O)C(O)C(O)C1O (stereo not drawn),27
4,CC(C)(C1CCC(O)CC1)C1CCC(O)CC1 (stereo not drawn) [CAS No. 80-04-6],62
5,CC(C)(c1ccc(O)cc1)c1ccc(O)cc1 [CAS No. 80-05-7],42
6,"OC[C@H]1O[C@@H](Oc2ccccc2)[C@H](O)[C@@H](O)[C@@H]1O [CAS No. 1464-44-4, Phenyl-beta-D-glycoside]",15
7,O=C(Nc1ccccc1)c1cccnc1 [CAS No. 1752-96-1],80
8,CC1(C)CC(O)CC(C)(C)N1O [CAS No. 2226-96-2],32
9,Cc1nc2cc(C)c(C)cc2[nH]1 [CAS No. 3363-56-2],63
10,CC(C)NCC(O)COc1cccc2ccccc12 (stereo not drawn) [CAS No. 4199-10-4],77
11,COc1ccc(NC(=O)CC(C)=O)cc1 [CAS No. 5437-98-9],31
12,CC(=O)c1ccc(-n2ccnc2)cc1 [CAS No. 10041-06-2],35
13,CC(=O)Oc1ccc(C(C)(C)c2ccc(OC(C)=O)cc2)cc1 [CAS No. 10192-62-8],70
14,COC(=O)C[S+]([O-])c1ccccc1 (stereo not drawn) [CAS No. 14090-83-6],35
15,O=c1c2ccccc2nnn1O [CAS No. 28230-32-2],80
16,NC1CCN(Cc2ccccc2)CC1 [CAS No. 50541-93-0],59
17,O=[N+]([O-])c1ccc(OC2OC(CO)C(OC3OC(CO)C(O)C(O)C3O)C(O)C2F)c([N+](=O)[O-])c1 (stereo not drawn) [CAS No. 154862-23-4],66
18,O=[N+]([O-])c1ccc(OC2OC(CO)C(OC3OC(CO)C(OC4OC(CO)C(O)C(O)C4O)C(O)C3O)C(O)C2F)c([N+](=O)[O-])c1 (stereo not drawn) [CAS No. 213193-76-1],60

# Same assay, conditions: at day 73; 0.5% compound on filter paper, 20 termites per well
row,Compound,termite death (printed in DTD50 column) [% atday 73]
1,Cc1cc(C(C)(C)c2cc(C)c(O)c(C)c2)cc(C)c1O [CAS No. 5613-46-7],42

# Same assay, conditions: by day 53; 0.5% compound on filter paper, 20 termites per well
row,Compound,termite death (printed in DTD50 column) [%by day53]
1,O=S(=O)(NCCc1c[nH]cn1)c1ccccc1 [CAS No. 195052-64-3],48

# Test system: termites
# Assay: Termiticide preference test (Reference Example 4)
# Format: in vivo
# Details: 100 termites per dish, about 7 days
# Procedure: The test is performed in 100 millimeter Petri dishes into which 20 grams of washed sand and 2 milliliters of water are distributed. Six circles (three plain and thee treated with the compound of interest) of Whatman #1 filter paper (15 millimeters) are used as food. The treated circles are prepared by pipetting a small volume (approximately 25 microliters) of a solution of the compound in an appropriate solvent onto the filter paper circles, and then evaporating the solvent.
# The filter paper circles are arranged in the dish in two rows using an alternating pattern of treated and untreated. One hundred termites are then added to the dish. The test is run for about 7 days to determine if any eating preference is seen between the treated and untreated filter paper circles.
row,Compound,preference test result (treated vs untreated filter paper circles)
1,CC(C)(C1CCC(O)CC1)C1CCC(O)CC1 (stereo not drawn) [CAS No. 80-04-6],passes the preference test
